In the NIST ThermoML archive (doi:10.1021/acs.jced.5b00820):

Experiment: refractive index (Na D-line) (dimensionless); xn = mol fraction of the nth substance listed
Details: 102.2 kPa, Liquid, Standard Abbe refractometry

C[Si](C)(O[Si](C)(C)c1ccccc1)c1ccccc1 [1,3-diphenyltetramethyldisiloxane] + C=C[Si]1(C)O[Si](C)(C=C)O[Si](C)(C=C)O[Si](C)(C=C)O1
refractive index
Details	308.15 K	313.15 K	318.15 K	323.15 K	328.15 K
x1 = 0.0511	1.43117	1.4288	1.42643	1.42402	1.42168
x1 = 0.1004	1.43477	1.43241	1.43005	1.42765	1.42534
x1 = 0.1503	1.43849	1.4361	1.43374	1.43138	1.42904
x1 = 0.2	1.44222	1.43984	1.4375	1.43511	1.43277
x1 = 0.2537	1.4463	1.44393	1.44162	1.43922	1.43688
x1 = 0.3001	1.4499	1.44754	1.44521	1.44282	1.44051
x1 = 0.3507	1.45386	1.4515	1.44918	1.44682	1.44446
x1 = 0.4002	1.4578	1.45544	1.45312	1.45075	1.4484
x1 = 0.4503	1.46186	1.45951	1.45719	1.45481	1.45253
x1 = 0.4999	1.4659	1.46356	1.46122	1.45885	1.45654
x1 = 0.5501	1.47011	1.46778	1.46545	1.46309	1.46081
x1 = 0.597	1.47406	1.47174	1.46939	1.46705	1.46474
x1 = 0.6498	1.47861	1.47627	1.47398	1.47166	1.46934
x1 = 0.7005	1.48302	1.48067	1.47836	1.47601	1.47373
x1 = 0.7492	1.48734	1.48502	1.48271	1.48037	1.47809
x1 = 0.8001	1.49193	1.48963	1.4873	1.48499	1.48269
x1 = 0.8497	1.49647	1.49417	1.49187	1.4896	1.48727
x1 = 0.8999	1.50106	1.49877	1.49645	1.49415	1.4918
x1 = 0.9502	1.50586	1.50356	1.50122	1.49894	1.49665
x1 = 1	1.51066	1.50836	1.5061	1.50381	1.5015

C[Si](C)(O[Si](C)(C)c1ccccc1)c1ccccc1 [1,3-diphenyltetramethyldisiloxane] + C=C[Si](C)(C)O[Si](C)(C)C=C
refractive index
Details	308.15 K	313.15 K	318.15 K	323.15 K	328.15 K
x1 = 0.0502	1.41155	1.40892	1.40628	1.40366	1.40099
x1 = 0.1	1.41834	1.41574	1.41315	1.41057	1.40797
x1 = 0.1487	1.42478	1.42224	1.41967	1.41713	1.41456
x1 = 0.2002	1.43134	1.42886	1.42631	1.42381	1.42128
x1 = 0.2498	1.43748	1.43501	1.43251	1.43004	1.4275
x1 = 0.3	1.44347	1.44103	1.43853	1.43607	1.43356
x1 = 0.3503	1.4493	1.44687	1.4444	1.44199	1.43951
x1 = 0.3994	1.45477	1.45239	1.44994	1.44752	1.44508
x1 = 0.4502	1.46032	1.45792	1.45549	1.45314	1.45071
x1 = 0.5001	1.46558	1.46321	1.46081	1.45844	1.45605
x1 = 0.5498	1.47066	1.46834	1.46594	1.4636	1.4612
x1 = 0.6002	1.47565	1.47332	1.47093	1.46859	1.46619
x1 = 0.6502	1.48048	1.47816	1.47577	1.47346	1.47107
x1 = 0.7004	1.48515	1.48285	1.48049	1.47821	1.47583
x1 = 0.7504	1.48971	1.48739	1.48506	1.48275	1.48038
x1 = 0.8003	1.4941	1.49177	1.48948	1.48715	1.48483
x1 = 0.8498	1.49836	1.49606	1.49375	1.49142	1.48912
x1 = 0.8986	1.50242	1.50013	1.49781	1.49552	1.4932
x1 = 0.9502	1.50659	1.50428	1.50198	1.49974	1.49743
x1 = 1	1.51052	1.5082	1.50593	1.50366	1.50133

C[Si](C)(O[Si](C)(C)c1ccccc1)c1ccccc1 [1,3-diphenyltetramethyldisiloxane] + C[Si]1(C)O[Si](C)(C)O[Si](C)(C)O[Si](C)(C)O1
refractive index
Details	308.15 K	313.15 K	318.15 K	323.15 K	328.15 K
x1 = 0.05	1.3951	1.39261	1.3901	1.38762	1.38512
x1 = 0.0999	1.40098	1.39849	1.39602	1.39357	1.39102
x1 = 0.1503	1.40694	1.40447	1.40199	1.39957	1.39707
x1 = 0.2005	1.41292	1.41044	1.40799	1.40557	1.40311
x1 = 0.2507	1.41891	1.41644	1.41401	1.41159	1.40913
x1 = 0.2963	1.42436	1.42193	1.41951	1.41708	1.41464
x1 = 0.3509	1.43091	1.42847	1.42607	1.42366	1.42126
x1 = 0.4001	1.43683	1.4344	1.43201	1.42964	1.42721
x1 = 0.4471	1.44251	1.44009	1.4377	1.4353	1.4329
x1 = 0.4968	1.44855	1.44616	1.44376	1.44142	1.43901
x1 = 0.5512	1.45518	1.45281	1.45043	1.44806	1.44571
x1 = 0.6003	1.46117	1.45878	1.45644	1.45407	1.45173
x1 = 0.6502	1.46727	1.46493	1.46256	1.46023	1.45785
x1 = 0.7001	1.47342	1.47107	1.46872	1.46638	1.46407
x1 = 0.7497	1.47954	1.47718	1.47488	1.47255	1.47021
x1 = 0.8	1.48577	1.48342	1.48109	1.47882	1.47646
x1 = 0.85	1.49197	1.48966	1.48733	1.48504	1.48273
x1 = 0.896	1.49768	1.49532	1.49303	1.49072	1.48841
x1 = 0.9497	1.50436	1.50202	1.49976	1.49748	1.49518
x1 = 1	1.51064	1.50832	1.50605	1.50377	1.50144

C[Si](C)(O[Si](C)(C)c1ccccc1)c1ccccc1 [1,3-diphenyltetramethyldisiloxane] + C[Si]1(CCC(F)(F)F)O[Si](C)(CCC(F)(F)F)O[Si](C)(CCC(F)(F)F)O1
refractive index
Details	308.15 K	313.15 K	318.15 K	323.15 K	328.15 K
x1 = 0.0501	1.36577	1.36376	1.36177	1.35973	1.3577
x1 = 0.1001	1.37152	1.36949	1.36745	1.36544	1.36339
x1 = 0.1499	1.37745	1.37541	1.37337	1.37133	1.36931
x1 = 0.2005	1.38359	1.38155	1.3795	1.37746	1.37541
x1 = 0.2497	1.38975	1.38769	1.38565	1.38355	1.38148
x1 = 0.3	1.39624	1.39416	1.39207	1.39	1.38792
x1 = 0.3431	1.40191	1.39984	1.39775	1.39565	1.3936
x1 = 0.4001	1.40958	1.40754	1.40546	1.40337	1.40125
x1 = 0.45	1.41665	1.41456	1.41246	1.41033	1.40824
x1 = 0.4998	1.42386	1.42173	1.41969	1.4175	1.41538
x1 = 0.5482	1.43101	1.42892	1.42678	1.42465	1.42246
x1 = 0.5996	1.43889	1.43676	1.43456	1.43246	1.43032
x1 = 0.6501	1.44686	1.44469	1.44253	1.44035	1.43816
x1 = 0.7	1.45499	1.45282	1.45064	1.44846	1.44627
x1 = 0.75	1.4634	1.4612	1.459	1.45683	1.4546
x1 = 0.8001	1.4721	1.46989	1.46772	1.4655	1.46326
x1 = 0.8499	1.48104	1.47886	1.47659	1.47441	1.47215
x1 = 0.8998	1.49033	1.48806	1.48584	1.48362	1.48135
x1 = 0.95	1.5001	1.49782	1.49555	1.49332	1.49106
x1 = 1	1.51009	1.50782	1.50561	1.50332	1.501
